According to patent US20160287545A1, “COMPOUND PARTICULARLY FOR TREATING DEPRESSION AND ANXIETY” (priority 2012, published 2016):

Experiments:
[1] = test system: mouse; details: cited from earlier work
[2] = cited from earlier work
[3] = test system: mouse; details: cited from earlier work; remark: listed apart in the source
[4] = test system: CD1 mice; test: swimming test in CD1 mice, antidepressant action of inhaled terpenes versus imipramine; type: in vivo; details: for isoeffect dose per body weight taking into account mean absorption factor (60%): 700x0.6, inhaling; for isoeffect dose with respect to imipramine: individual single inhalation giving approximately the same immobility time as imipramine, vaporized dose; for intrinsic activity (full agonist action, dose-effect comparison with imipramine): swimming test, inhaled; for antidepressant activity: vaporized, inhaled for 24 hours (12+12 hours); for isoeffect dose per body weight: versus 30 mg/kg of imipramine
Method: 4. For each test, CD-1® (ICR) Specific Pathogen Free NAF mice (16/18 g upon arrival) were used, originating from the supplier facility Charles River Laboratories, Calco, Italy; 5 mice for the control group, 5 mice for the reference test with imipramine, 5 mice for the substance tested in the first 4 tests and then 10 mice for all the other tests. The choice of CD1 mice was determined by the fact that it is considered to be the animal model suitable for performing the swimming test for the evaluation of substances having an antidepressant action.
5. For terpene vaporization, “Elettromatt Turispharma” electric vaporizers were used (PCT/EP 97/01897, inventors Bevilacqua M, Zaccagna C A), heated to a constant temperature of 90° C.
The three groups of mice were placed in three transparent plastic boxes with the size of 150 cm×75 cm and a volume di […] at a controlled temperature (19.0-21.0° C.), in air prefiltered with an HEPA absolute filter without flow, humidity (40-50%) and darkness/light cycle (12 hours/12 hours).
The control group received the carrier (physiological solution) by IP pathway.
The administration path of the substances being considered was intraperitoneal for imipramine and the pulmonary path was used for the terpene substances being considered, always vaporized with the same electric vaporizers.
Reference test substance: imipramine 30 mg/Kg/ip=30.000 mcg/Kg/ip, equal to 0.6 mg per animal, administered 30 minutes before the test.
Subsequent tests were performed with the individual components (35 mg repeated after 12 hours), in pairs (35 mg+35 mg, repeated after 12 hours) and then all three together (35+35+35 mg repeated after 12 hours).
The treatment was performed 30 minutes before the test for the control group and for the imipramine group intraperitoneally. The third group was subject, after the T0 test, to vaporization for 24 hours (12+12 hours) of the anonymous substance being considered.

[5] = test system: rat; details: cited from earlier work
[6] = in vivo; cited from earlier work
[7] = cited from earlier work; remark: listed apart in the source
[8] = test system: patients with bulimia; details: followed on for two years; cited from earlier work
[9] = rat; cited from earlier work
[10] = inhalation for 2 hours during a 50 W workload, healthy volunteers; cited from earlier work
[11] = test system: rats; details: inhaling, swimming test; cited from earlier work
[12] = 200 and 400 mg/kg orally, mouse

CC12CCC(CC1)C(C)(C)O2 [1,8-cineol]
acute toxicity, oral dose [1]: 2480 mg/kg
time to detection in blood after inhaling [2]: 5 min
time to concentration maximum in blood ([2]; inhaling): ≤ 18 min
immobility time [3, 12]: significant increase in the immobility time
latency of pentobarbital sleep [3, 12]: reduced latency of pentobarbital sleep
dose observed in the literature ([3]; in the mouse): 200 to 400 mg/kg
motor coordination in the rotarod test ([3]; orally, mouse): no effects on motor coordination
isoeffect dose per body weight taking into account mean absorption factor (60%) [4]: 420 mg/kg
isoeffect dose with respect to imipramine [4]: 70 mg
intrinsic activity (full agonist action, dose-effect comparison with imipramine) [4]: 1
antidepressant activity [4]: evident antidepressant activity
isoeffect dose per body weight [4]: 700 mg/kg
effect of pretreatment with naloxone on anti-nociceptive action ([5]; oral dose between 100 and 400 mg/kilograms): not canceled out by pretreatment with naloxone
anti-nociceptive action ([5]; rat): comparable to morphine

CC(=O)O[C@@H]1CC[C@@]2(C)[C@@H](CC[C@]3(C)[C@@H]2C(=O)C=C2[C@@H]4[C@@H](C)[C@H](C)CC[C@]4(C)CC[C@]23C)[C@@]1(C)C(=O)O [AKBA, acetyl-11-keto-beta-boswellic acid]
brain/plasma ratio [6]: ~0.81

C[C@H]1[C@H](C)CC[C@]2(C)CC[C@]3(C)C(=CC(=O)[C@@H]4[C@@]5(C)CC[C@@H](O)[C@](C)(C(=O)O)[C@@H]5CC[C@]43C)[C@H]12 [KBA, 11-keto-beta-boswellic acid]
brain/plasma ratio [6]: approximately 0.51

CN(C)CCCN1c2ccccc2CCc2ccccc21 [imipramine, imipramine chloride hydrate]
solubility [7]: 50 mg/mL
total mean immobility time ([4]; imipramine 30 mg/Kg ip 30 minutes before the test, mean of all 9 tests, 45 mice): 41.11±16.12
patients with considerable success [8]: 19 out of 20

C=C(C)[C@H]1CC=C(C)CC1 [limonene, (R)-(+)-limonene]
oral bioavailability [9]: 43.0%
pulmonary uptake, of the administered quantity [10]: 70%
immobility time [11]: reduces significantly the immobility time
isoeffect dose per body weight taking into account mean absorption factor (60%) [4]: 420 mg/kg
isoeffect dose with respect to imipramine [4]: 70 mg
intrinsic activity (full agonist action, dose-effect comparison with imipramine) [4]: 1
antidepressant activity [4]: evident antidepressant activity
isoeffect dose per body weight [4]: 700 mg/kg
